In assay [1] the target is T1, Amine oxidase [flavin-containing] A (Homo sapiens, UniProt P21397).
T1 sequence (P21397 whole entry): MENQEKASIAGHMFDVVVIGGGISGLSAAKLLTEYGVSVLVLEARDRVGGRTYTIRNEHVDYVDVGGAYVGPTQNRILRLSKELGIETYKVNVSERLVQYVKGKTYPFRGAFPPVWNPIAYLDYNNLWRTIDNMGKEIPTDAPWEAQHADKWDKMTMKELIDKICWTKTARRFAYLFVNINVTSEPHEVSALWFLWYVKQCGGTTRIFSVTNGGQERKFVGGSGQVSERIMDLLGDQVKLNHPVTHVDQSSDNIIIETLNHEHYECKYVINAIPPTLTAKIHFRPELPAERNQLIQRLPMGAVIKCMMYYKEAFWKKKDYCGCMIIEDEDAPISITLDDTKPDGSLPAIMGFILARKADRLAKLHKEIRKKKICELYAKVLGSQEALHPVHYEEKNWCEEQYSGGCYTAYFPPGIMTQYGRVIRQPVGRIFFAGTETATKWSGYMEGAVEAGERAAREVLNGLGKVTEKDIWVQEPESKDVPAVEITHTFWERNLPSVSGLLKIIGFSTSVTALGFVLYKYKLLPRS
Format: functional.

The target of assay [2] is Gamma-aminobutyric acid receptor subunit alpha-1 (Rattus norvegicus, UniProt P62813). Format: functional.
Assay [3] deals with T2, Alpha-1A adrenergic receptor (Homo sapiens, UniProt P35348).
T2 sequence (P35348 whole entry): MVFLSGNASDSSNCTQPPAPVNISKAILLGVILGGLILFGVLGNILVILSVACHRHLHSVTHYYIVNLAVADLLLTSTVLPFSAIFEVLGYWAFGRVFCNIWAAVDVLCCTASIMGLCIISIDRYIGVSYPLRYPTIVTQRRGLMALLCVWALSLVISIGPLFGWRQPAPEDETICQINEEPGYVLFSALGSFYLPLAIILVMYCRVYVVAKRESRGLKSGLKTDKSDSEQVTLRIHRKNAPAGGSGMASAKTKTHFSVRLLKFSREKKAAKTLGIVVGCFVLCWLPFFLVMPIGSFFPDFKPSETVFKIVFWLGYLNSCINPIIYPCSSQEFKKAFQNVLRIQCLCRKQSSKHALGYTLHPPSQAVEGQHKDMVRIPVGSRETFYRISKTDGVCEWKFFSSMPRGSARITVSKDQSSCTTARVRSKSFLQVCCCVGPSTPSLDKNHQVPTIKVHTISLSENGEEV
Format: functional, cell-based.

Assay [4] addresses Cannabinoid receptor 1 (Homo sapiens, UniProt P21554).
The target of assay [5] is T3, Alpha-2A adrenergic receptor (Homo sapiens, UniProt P08913).
T3 sequence (P08913 whole entry): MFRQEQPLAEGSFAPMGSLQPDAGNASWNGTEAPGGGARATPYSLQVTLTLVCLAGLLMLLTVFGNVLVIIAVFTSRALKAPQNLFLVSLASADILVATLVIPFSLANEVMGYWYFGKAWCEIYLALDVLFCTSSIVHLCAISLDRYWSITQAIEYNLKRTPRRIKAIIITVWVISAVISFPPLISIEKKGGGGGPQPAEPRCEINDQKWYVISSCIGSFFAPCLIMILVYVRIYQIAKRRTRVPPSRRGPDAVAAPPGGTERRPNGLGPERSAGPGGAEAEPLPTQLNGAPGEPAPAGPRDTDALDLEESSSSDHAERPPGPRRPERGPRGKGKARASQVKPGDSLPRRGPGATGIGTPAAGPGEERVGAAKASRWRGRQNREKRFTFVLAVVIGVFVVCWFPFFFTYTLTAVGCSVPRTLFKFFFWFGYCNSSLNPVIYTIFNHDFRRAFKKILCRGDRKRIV
The assay is classed as functional, cell-based.

The target in assay [6] is T4, Alpha-2B adrenergic receptor (Homo sapiens, UniProt P18089).
T4 sequence (P18089 whole entry): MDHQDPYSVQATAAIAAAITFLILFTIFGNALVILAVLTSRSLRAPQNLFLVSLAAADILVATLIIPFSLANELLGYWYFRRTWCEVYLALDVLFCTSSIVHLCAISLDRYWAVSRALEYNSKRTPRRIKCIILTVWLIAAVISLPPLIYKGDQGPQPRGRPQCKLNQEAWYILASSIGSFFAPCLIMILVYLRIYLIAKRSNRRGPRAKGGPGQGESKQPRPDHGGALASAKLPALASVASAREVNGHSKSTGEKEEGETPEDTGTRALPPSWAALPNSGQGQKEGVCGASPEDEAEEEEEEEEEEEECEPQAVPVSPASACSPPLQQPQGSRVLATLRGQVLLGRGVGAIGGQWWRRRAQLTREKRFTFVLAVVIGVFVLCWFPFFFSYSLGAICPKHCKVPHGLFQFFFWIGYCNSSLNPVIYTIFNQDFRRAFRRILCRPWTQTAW

Assay [7] addresses 5-hydroxytryptamine receptor 2A (Homo sapiens, UniProt P28223). Format: functional, cell-based.
For assay [8], the target named is Beta-2 adrenergic receptor (Homo sapiens, UniProt P07550). Format: functional, cell-based.
The target of assay [9] is Mu-type opioid receptor (Homo sapiens, UniProt P35372). Kind of assay: biochemical. Format: functional.

Where only a bound is given, the exact number is not on record here.

23 molecules from ChEMBL document CHEMBL5291721, “A preclinical secondary pharmacology resource illuminates target-adverse drug reaction associations of marketed drugs” (Nat Commun, 2023) can be followed below.
Note: assay procedure not described here.

Sequence of Beta-2 adrenergic receptor (P07550 whole entry): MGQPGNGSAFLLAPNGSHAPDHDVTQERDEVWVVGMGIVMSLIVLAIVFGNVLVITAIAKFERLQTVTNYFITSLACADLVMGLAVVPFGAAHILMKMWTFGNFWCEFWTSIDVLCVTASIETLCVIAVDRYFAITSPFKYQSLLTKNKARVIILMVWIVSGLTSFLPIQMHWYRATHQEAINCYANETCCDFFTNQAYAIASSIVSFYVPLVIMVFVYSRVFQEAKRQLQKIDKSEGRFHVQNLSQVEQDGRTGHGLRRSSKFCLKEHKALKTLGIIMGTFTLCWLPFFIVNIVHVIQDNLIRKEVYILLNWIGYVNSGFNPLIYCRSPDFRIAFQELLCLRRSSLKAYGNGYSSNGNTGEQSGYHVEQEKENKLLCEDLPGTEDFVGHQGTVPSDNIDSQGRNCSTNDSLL
Sequence of Gamma-aminobutyric acid receptor subunit alpha-1 (P62813 whole entry): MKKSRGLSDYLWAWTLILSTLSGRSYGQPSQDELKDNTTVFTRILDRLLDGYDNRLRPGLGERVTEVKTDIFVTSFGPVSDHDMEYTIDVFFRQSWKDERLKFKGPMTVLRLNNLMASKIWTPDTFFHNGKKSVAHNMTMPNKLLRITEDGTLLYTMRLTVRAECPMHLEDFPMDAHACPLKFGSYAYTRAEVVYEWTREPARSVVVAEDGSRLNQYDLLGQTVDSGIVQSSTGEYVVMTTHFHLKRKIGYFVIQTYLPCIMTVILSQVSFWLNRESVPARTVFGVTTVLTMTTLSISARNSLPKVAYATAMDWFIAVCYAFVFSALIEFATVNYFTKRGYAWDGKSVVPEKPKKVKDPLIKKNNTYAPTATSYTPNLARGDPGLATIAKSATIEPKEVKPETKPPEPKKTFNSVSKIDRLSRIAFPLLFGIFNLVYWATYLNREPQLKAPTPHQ
Sequence of 5-hydroxytryptamine receptor 2A (P28223 whole entry): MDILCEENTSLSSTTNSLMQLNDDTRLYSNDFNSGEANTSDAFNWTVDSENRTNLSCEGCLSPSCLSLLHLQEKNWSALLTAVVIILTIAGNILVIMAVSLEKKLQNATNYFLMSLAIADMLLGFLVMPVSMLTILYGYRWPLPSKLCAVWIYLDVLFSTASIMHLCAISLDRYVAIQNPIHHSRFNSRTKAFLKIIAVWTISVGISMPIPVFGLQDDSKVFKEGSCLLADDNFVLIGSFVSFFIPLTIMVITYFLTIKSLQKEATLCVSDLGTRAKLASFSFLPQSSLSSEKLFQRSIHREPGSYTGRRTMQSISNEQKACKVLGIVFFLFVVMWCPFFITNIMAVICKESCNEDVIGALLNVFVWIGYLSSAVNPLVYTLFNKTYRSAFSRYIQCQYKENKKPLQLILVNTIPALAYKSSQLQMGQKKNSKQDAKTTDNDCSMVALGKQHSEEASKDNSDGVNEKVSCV
Sequence of Cannabinoid receptor 1 (P21554 whole entry): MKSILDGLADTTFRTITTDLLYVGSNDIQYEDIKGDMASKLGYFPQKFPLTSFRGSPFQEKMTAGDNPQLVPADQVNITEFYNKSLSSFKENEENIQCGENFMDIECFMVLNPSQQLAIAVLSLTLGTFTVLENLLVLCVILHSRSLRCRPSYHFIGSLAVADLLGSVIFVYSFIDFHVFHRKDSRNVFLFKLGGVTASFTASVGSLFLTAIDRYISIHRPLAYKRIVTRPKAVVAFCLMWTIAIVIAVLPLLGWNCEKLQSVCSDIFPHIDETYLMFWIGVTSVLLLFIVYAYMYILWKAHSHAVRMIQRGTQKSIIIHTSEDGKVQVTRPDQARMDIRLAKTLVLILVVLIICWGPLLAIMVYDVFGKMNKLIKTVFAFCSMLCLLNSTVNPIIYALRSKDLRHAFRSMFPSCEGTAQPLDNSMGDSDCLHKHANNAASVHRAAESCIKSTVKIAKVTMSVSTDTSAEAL
Sequence of Mu-type opioid receptor (P35372 whole entry): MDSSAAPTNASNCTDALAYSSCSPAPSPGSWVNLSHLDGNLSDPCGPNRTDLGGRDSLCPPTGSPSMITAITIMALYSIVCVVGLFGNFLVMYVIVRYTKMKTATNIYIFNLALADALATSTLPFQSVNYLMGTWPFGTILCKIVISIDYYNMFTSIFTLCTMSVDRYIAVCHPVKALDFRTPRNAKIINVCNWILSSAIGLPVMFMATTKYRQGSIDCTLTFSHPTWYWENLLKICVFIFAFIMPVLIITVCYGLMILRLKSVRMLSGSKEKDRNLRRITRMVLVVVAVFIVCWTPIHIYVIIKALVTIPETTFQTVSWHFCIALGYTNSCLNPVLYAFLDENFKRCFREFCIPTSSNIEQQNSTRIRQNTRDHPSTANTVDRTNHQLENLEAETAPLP

By AC50 is commonly meant the midpoint of the concentration-response curve, whichever way the signal moves. The low end stands for activity at low concentration, the high end for activity only at high concentration. As for `CC(C)CN(C[C@@H](O)[C@H](Cc1ccccc1)NC(=O)O[C@H]1CCOC1)S(=O)(=O)c1ccc(N)cc1`, the AC50 in assay [1] is greater than 10 µM; in assay [2], greater than 10 µM; in assay [3] it was 12 µM; in assay [4], 11.4 µM; in assay [5], greater than 10 µM.

Take `OCC(O)COc1ccc(Cl)cc1` (configuration not stated): the AC50 in assay [1], in assay [6], in [2], in [4], in assay [5] and in assay [7] was greater than 10 µM throughout.

With `COc1ccc(-n2nc(C(N)=O)c3c2C(=O)N(c2ccc(N4CCCCC4=O)cc2)CC3)cc1` [APIXABAN], the AC50 in assay [1], in [6], in assay [2], in assay [3], in assay [8] and in assay [5] was greater than 30 µM in each case.

In the case of `C[C@@H](Cc1ccccc1)N(C)Cc1ccccc1` [BENZPHETAMINE], the AC50 was greater than 10 µM in assay [1]; 2.8 µM in assay [6]; greater than 10 µM in assay [2]; 13 µM in [3]; greater than 10 µM in [4]; greater than 10 µM in [5]. This molecule also returned an AC50 in assay [7] of 22 µM.

`CNCCc1ccccn1` [BETAHISTINE]: the AC50 in [1], in [2], in assay [3], in [9] and in [5] was greater than 30 µM in each case.

On to `O=C(O)CCCC[C@@H]1SC[C@@H]2NC(=O)N[C@@H]21` [BIOTIN], for which the AC50 in assay [1], in assay [6], in assay [4] and in assay [5] was greater than 10 µM each time.

Regarding `CCCCOC(=O)c1ccc(N)cc1` [BUTAMBEN], the AC50 in assay [1], in [2], in [3], in [9] and in assay [5] was greater than 30 µM in each case.

For the molecule `CN(Cc1ccc(C(C)(C)C)cc1)Cc1cccc2ccccc12` [BUTENAFINE], the AC50 in assay [1], in [2], in [4] and in [5] was greater than 10 µM each time.

In the case of `C=C(c1ccccc1OCc1cccc(Cl)c1)n1ccnc1` [CROCONAZOLE], the AC50 in assay [1] was greater than 10 µM; in [6], greater than 10 µM; in assay [2] it was greater than 10 µM; in assay [3], 21 µM; in assay [5] it was greater than 10 µM.

In the case of `CC1CC(OC(=O)C(O)c2ccccc2)CC(C)(C)C1` (configuration not stated) [CYCLANDELATE], the AC50 in [1], in [2], in [4] and in assay [5] was greater than 10 µM in each case.

For `CCCCCCOC(=O)NC(=N)c1ccc(NCc2nc3cc(C(=O)N(CCC(=O)OCC)c4ccccn4)ccc3n2C)cc1` [DABIGATRAN ETEXILATE], the AC50 in [1], in assay [6], in assay [2], in assay [3], in assay [8] and in [5] was greater than 30 µM each time. Further, the AC50 in [7] is greater than 30 µM.

For the molecule `COC(=O)[C@H]1[C@H]2C[C@@H]3c4[nH]c5ccccc5c4CCN3C[C@H]2C[C@@H](OC(=O)c2cc(OC)c(OC)c(OC)c2)[C@@H]1OC` [DESERPIDINE], the AC50 in assay [1], in assay [6], in assay [2], in [4], in [5] and in assay [7] was greater than 10 µM throughout.

`Cc1cnc(Nc2ccc(OCCN3CCCC3)cc2)nc1Nc1cccc(S(=O)(=O)NC(C)(C)C)c1` [FEDRATINIB]: the AC50 in assay [1], in [6], in assay [2], in assay [4] and in assay [5] was greater than 10 µM throughout.

As to `CC(=O)[C@@]1(O)CC[C@H]2[C@@H]3C[C@H](C)C4=CC(=O)C=C[C@]4(C)[C@@]3(F)[C@@H](O)C[C@@]21C` [FLUOROMETHOLONE], the AC50 in assay [1] was greater than 10 µM; in assay [2], greater than 10 µM; in [3], greater than 30 µM; in assay [4], greater than 10 µM; in assay [5], greater than 10 µM.

As to `CC(=O)N1CCN(c2ccc(OCC3COC(Cn4ccnc4)(c4ccc(Cl)cc4Cl)O3)cc2)CC1` (configuration not stated) [KETOCONAZOLE], the AC50 in assay [1], in assay [2], in assay [4] and in [5] was greater than 10 µM in each case.

On to `O=C(C[S+]([O-])Cc1ccco1)NC/C=C\COc1cc(CN2CCCCC2)ccn1` (configuration not stated) [LAFUTIDINE], for which the AC50 in [1] is greater than 10 µM; in assay [6] it was greater than 10 µM; in assay [2], greater than 10 µM; in assay [3] it was greater than 30 µM; in assay [4], greater than 10 µM; in assay [5], greater than 10 µM. This molecule also gave an AC50 in [7] greater than 30 µM.

With `CCC1(CC)C(=O)NC(=O)N(C)C1=O` [METHARBITAL], the AC50 in [1], in [6], in assay [2], in [4], in assay [5] and in [7] was greater than 10 µM throughout.

Regarding `Nc1cc(N2CCCCC2)nc(N)[n+]1[O-]` [MINOXIDIL], the AC50 was greater than 10 µM in assay [1]; greater than 10 µM in assay [2]; greater than 30 µM in [3]; greater than 30 µM in assay [8]; greater than 10 µM in [4]; greater than 10 µM in assay [5].

Take `CC(C)(C)NCC(O)COc1cccc2c1CC(O)C(O)C2` (configuration not stated) [NADOLOL]: the AC50 was greater than 10 µM in assay [1]; greater than 10 µM in [2]; 7.7 µM in assay [3]; greater than 10 µM in [4]; greater than 10 µM in assay [5].

On to `Nc1ccc(S(=O)(=O)Nc2ncccn2)cc1` [SULFADIAZINE], for which the AC50 in assay [1], in [2], in assay [4] and in assay [5] was greater than 10 µM throughout.

For the molecule `CC(C(=O)O)c1ccc(C(=O)c2ccccc2)s1` (configuration not stated) [TIAPROFENIC ACID], the AC50 in [1] was 18 µM; in assay [6], greater than 10 µM; in assay [2], greater than 30 µM; in assay [3], greater than 30 µM; in assay [8] it was greater than 30 µM; in assay [4] it was greater than 10 µM. Besides, the AC50 in [5] was greater than 10 µM; in assay [7], greater than 30 µM.

`CCN(C(C)=O)c1cccc(-c2ccnc3c(C#N)cnn23)c1` [ZALEPLON]: the AC50 in [1] was greater than 10 µM; in [3] it was greater than 30 µM; in assay [5] it was greater than 10 µM.

With TEPRENONE, the concentration at half-maximal activity (AC50) was greater than 10 µM in assay [1]; greater than 10 µM in assay [6]; greater than 10 µM in assay [2]; greater than 30 µM in assay [3]; greater than 10 µM in assay [5].
